Results reported in patent US20250195513A1, “DEGRADATION OF IRAK4 BY CONJUGATION OF IRAK4 INHIBITORS WITH E3 LIGASE LIGAND AND METHODS OF USE” (BeiGene, Ltd., priority 2022, published 2025).

Experiments:
Type in all cases: cell-based
IRAK4 [1] = target: T1, IRAK4 (Homo sapiens, UniProt Q9NWZ3); assay: IRAK4 Degradation Assay (Karpas299, HTRF/TR-FRET); conditions: Karpas-299 cells; for Dmax: maximum percentage of degradation
T1 construct: endogenous in cells; host or cells: Karpas299
T1 sequence (Q9NWZ3 1-460): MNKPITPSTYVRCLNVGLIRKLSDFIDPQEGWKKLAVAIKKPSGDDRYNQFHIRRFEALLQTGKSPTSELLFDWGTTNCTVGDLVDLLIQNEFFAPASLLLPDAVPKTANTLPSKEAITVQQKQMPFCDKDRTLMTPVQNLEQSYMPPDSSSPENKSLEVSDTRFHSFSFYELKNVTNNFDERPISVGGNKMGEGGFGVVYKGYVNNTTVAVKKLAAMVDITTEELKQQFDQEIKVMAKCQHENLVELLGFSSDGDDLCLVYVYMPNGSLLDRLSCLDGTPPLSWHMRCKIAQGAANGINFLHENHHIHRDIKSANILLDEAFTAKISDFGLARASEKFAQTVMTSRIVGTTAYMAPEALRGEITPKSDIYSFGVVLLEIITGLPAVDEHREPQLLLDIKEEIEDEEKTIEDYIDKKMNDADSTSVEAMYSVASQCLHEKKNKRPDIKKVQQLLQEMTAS
Procedure, shortened: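 Compound potency as DC50 (IC50) came from four-parameter fits of percent IRAK4 degradation. IRAK4 was measured by HTRF (665/620 nm) in lysates of Karpas299 cells seeded at 0.2 million per well. Cells had been treated with compound dilutions for 5 or 24 h.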

IRAK4 [2] = target: T1, IRAK4; assay: IRAK4 Degradation Assay with Human Serum (Karpas299, HTRF/TR-FRET); conditions: Karpas-299 in human serum, 24 hrs treatment; for DC50: read-out: IRAK4 degradtion with human serum assay DC50; for Dmax: read-out: IRAK4 degradtion with human serum assay Dmax (%)
Procedure, shortened: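 Remaining IRAK4 measured by TR-FRET immunoassay on lysates of Karpas299 cells exposed 24 h to compound dilution series in human serum AB. DC50 derived from a Hill-slope fit of % degradation versus concentration.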

[3] = tested on: IL-6 production in human PBMC; assay: IL-6 Production Assay in Human PBMC (LPS stimulated); conditions: Homo sapiens, 5 h; for Emax: maximum inhibition, read-out: IL-6 (PBMC) 5 h IMax
Experimental: Frozen human PBMC (AllCells) were thawed in RPMI 1640 medium (Thermo Scientific) supplemented with 10% heat-inactivated FBS (Thermo Scientific) and recovered at 37° C. overnight. The next day, PBMC were seeded into 96-well plates at the density of 0.2 million cells per well and treated with compounds for 24 h. Then lipopolysaccharide was added at the final concentration of 10 ng/mL for 5 h. Culture supernatant was collected for subsequent measurement of IL-6 concentration by a TR-FRET-based method (Degorce, François, et al. Current chemical genomics. 2009, 3: 22) as described by the manufacturer manual (Cisbio). FRET signals were measured with PHERAstar FSX reader (BMG Labtech).

[4] = tested on: TNF-α production in THP-1 cells; assay: TNF-α Production Assay in THP-1 Cells (LPS stimulated); conditions: Homo sapiens, THP-1, 24 h; for Emax: maximum inhibition, read-out: TNF-α (THP-1) 24 h IMax
Experimental: THP-1 cells maintained in RPMI 1640 medium (Thermo Scientific) supplemented with 10% FBS (Thermo Scientific), 100 units/mL penicillin and 0.1 mg/mL streptomycin (Thermo Scientific) were seeded into 96-well plates at the density of 0.2 million cells per well and then treated with compounds for 24 h. Lipopolysaccharide was subsequently added at the final concentration of 1 μg/mL for 24 h. Culture supernatant was collected for measurement of TNF-α concentration by a TR-FRET-based method (Degorce, François, et al. Current chemical genomics. 2009, 3: 22) as described by the manufacturer manual (Cisbio). FRET signals were measured using a PHERAstar FSX reader (BMG Labtech).

[5] = 24 h treatment, read-out: IRAK4 in Karpas-299 (24 h) Dmax (%)
[6] = 24 h treatment, read-out: IRAK4 in Karpas-299 (24 h) DC50
[7] = 5 h treatment, read-out: IRAK4 in Karpas-299 (5 h) Dmax (%)
[8] = 5 h treatment, read-out: IRAK4 in Karpas-299 (5 h) DC50

| SMILES | Dmax (IRAK4 [1]; [5]) [%] | DC50 (IRAK4 [1]; [6]) [nM] | DC50 (IRAK4 [2]) [nM] | Dmax (IRAK4 [2]) [%] | IC50 [3] [nM] | Emax [3] [%] | Dmax (IRAK4 [1]; [7]) [%] | DC50 (IRAK4 [1]; [8]) [nM] | IC50 [4] [nM] | Emax [4] [%] |
| --- | --- | --- | --- | --- | --- | --- | --- | --- | --- | --- |
| COc1cc2nn([C@H]3CC[C@H](N4CCN(CC5CN(c6cc(F)c([C@H]7CCC(=O)NC7=O)c(F)c6)C5)CC4)CC3)cc2cc1C(=O)Nc1cnc2cccnn12 [Example 345, 2-((1r,4r)-4-(4-((1-(4-((R)-2,6-dioxopiperidin-3-yl)-3,5-difluorophenyl)azetidin-3-yl)methyl)piperazin-1-yl)cyclohexyl)-N-(imidazo[1,2-b]pyridazin-3-yl)-6-methoxy-2H-indazole-5-carboxamide] | 98 | 0.2 | 0.7 | 96 | 3.5 | 60 |  |  |  |  |
| CC(C)(O)c1cc2nn([C@H]3CC[C@H](N4CCN([C@H]5C[C@@H](c6cc(F)c([C@H]7CCC(=O)NC7=O)c(F)c6)C5)CC4)CC3)cc2cc1NC(=O)c1ccc2cc(C#N)cnn12 [Example 363, 3-cyano-N-(2-((1S,4r)-4-(4-((1S,3S)-3-(4-((R)-2,6-dioxopiperidin-3-yl)-3,5-difluorophenyl)cyclobutyl)piperazin-1-yl)cyclohexyl)-6-(2-hydroxypropan-2-yl)-2H-indazol-5-yl)pyrrolo[1,2-b]pyridazine-7-carboxamide] | 96 | 0.8 | 5.9 | 97 | 2.2 | 67 | 95 | 1.2 |  |  |
| COC[C@@H]1CN([C@H]2CC[C@H](n3cc4cc(NC(=O)c5ccc6cc(C#N)cnn56)c(C(C)(C)O)cc4n3)CC2)CCN1C1CN(c2cc(F)c([C@H]3CCC(=O)NC3=O)c(F)c2)C1 [Example 387, 3-cyano-N-(2-((1S,4r)-4-((S)-4-(1-(4-((R)-2,6-dioxopiperidin-3-yl)-3,5-difluorophenyl)azetidin-3-yl)-3-(methoxymethyl)piperazin-1-yl)cyclohexyl)-6-(2-hydroxypropan-2-yl)-2H-indazol-5-yl)pyrrolo[1,2-b]pyridazine-7-carboxamide] | 98 | 0.8 | 6.9 | 95 | 1.7 | 53 | 90 | 1.3 |  |  |
| CC(C)(O)c1cc2nn([C@H]3CC[C@H](N4CCN([C@H]5C[C@H](c6ccc(N[C@H]7CCC(=O)NC7=O)cc6)C5)CC4)CC3)cc2cc1NC(=O)c1ccc2cc(C#N)cnn12 [Example 274, 3-cyano-N-(2-((1R,4r)-4-(4-((1S,3R)-3-(4-(((S)-2,6-dioxopiperidin-3-yl)amino)phenyl)cyclobutyl)piperazin-1-yl)cyclohexyl)-6-(2-hydroxypropan-2-yl)-2H-indazol-5-yl)pyrrolo[1,2-b]pyridazine-7-carboxamide] | 97 | 1.6 | 3.7 | 99 | 2 | 64 | 97 | 9.8 |  |  |
| COC[C@@H]1CN(CCc2cc(F)c([C@H]3CCC(=O)NC3=O)c(F)c2)CCN1[C@H]1CC[C@H](n2cc3cc(NC(=O)c4ccc5cc(C#N)cnn45)c(C(C)(C)O)cc3n2)CC1 [Example 325, 3-cyano-N-(2-((1S,4r)-4-((S)-4-(4-((R)-2,6-dioxopiperidin-3-yl)-3,5-difluorophenethyl)-2-(methoxymethyl)piperazin-1-yl)cyclohexyl)-6-(2-hydroxypropan-2-yl)-2H-indazol-5-yl)pyrrolo[1,2-b]pyridazine-7-carboxamide] | 96 | 0.9 | 15 | 91 | 4.2 | 72 |  |  |  |  |
| COC[C@@H]1CN([C@H]2CC[C@H](n3cc4cc(NC(=O)c5ccc6cc(C#N)cnn56)c(C(C)(C)O)cc4n3)CC2)CCN1CC1CN(c2cc(F)c([C@H]3CCC(=O)NC3=O)c(F)c2)C1 [Example 358, 3-cyano-N-(2-((1S,4r)-4-((S)-4-((1-(4-((R)-2,6-dioxopiperidin-3-yl)-3,5-difluorophenyl)azetidin-3-yl)methyl)-3-(methoxymethyl)piperazin-1-yl)cyclohexyl)-6-(2-hydroxypropan-2-yl)-2H-indazol-5-yl)pyrrolo[1,2-b]pyridazine-7-carboxamide] | 99 | 0.5 | 5.4 | 96 |  |  | 95 | 1.9 | 17 | 96 |
| CC(C)(O)c1cc2nn([C@H]3C[C@H](N4CCN(C5CCN(c6cc(F)c([C@H]7CCC(=O)NC7=O)c(F)c6)CC5)CC4)C3)cc2cc1NC(=O)c1ccc2cc(C#N)cnn12 [Example 330, 3-cyano-N-(2-((1R,3r)-3-(4-(1-(4-((R)-2,6-dioxopiperidin-3-yl)-3,5-difluorophenyl)piperidin-4-yl)piperazin-1-yl)cyclobutyl)-6-(2-hydroxypropan-2-yl)-2H-indazol-5-yl)pyrrolo[1,2-b]pyridazine-7-carboxamide] | 96 | 0.6 | 10 | 98 |  |  |  |  | 19 | 89 |
| C[C@@H]1CN([C@H]2CC[C@H](n3cc4cc(NC(=O)c5ccc6cc(C#N)cnn56)c(C(C)(C)O)cc4n3)CC2)CCN1C(=O)C1CN(c2cc(F)c([C@H]3CCC(=O)NC3=O)c(F)c2)C1 [Example 309, 3-cyano-N-(2-((1R,4r)-4-((R)-4-(1-(4-((R)-2,6-dioxopiperidin-3-yl)-3,5-difluorophenyl)azetidine-3-carbonyl)-3-methylpiperazin-1-yl)cyclohexyl)-6-(2-hydroxypropan-2-yl)-2H-indazol-5-yl)pyrrolo[1,2-b]pyridazine-7-carboxamide] | 97 | 0.4 | 14 | 100 |  |  |  |  | 31 | 90 |
| CC(C)(O)c1cc2nn([C@H]3CC[C@H](N4CCN(C5CCN(c6ccc(C7CCC(=O)NC7=O)cc6)CC5)CC4)CC3)cc2cc1NC(=O)c1ccc2cc(C#N)cnn12 (stereo partly shown) [Example 195, 3-cyano-N-(2-((1r,4r)-4-(4-(1-(4-(2,6-dioxopiperidin-3-yl)phenyl)piperidin-4-yl)piperazin-1-yl)cyclohexyl)-6-(2-hydroxypropan-2-yl)-2H-indazol-5-yl)pyrrolo[1,2-b]pyridazine-7-carboxamide] | 98 | 2.8 | 10 | 98 |  |  | 97 | 13 | 118 | 72 |
| CC(C)(O)c1cc2nn(C3CCN([C@H]4CCN(CCc5cc(F)c([C@H]6CCC(=O)NC6=O)c(F)c5)CC4(F)F)CC3)cc2cc1NC(=O)c1ccc2cc(C#N)cnn12 [Example 339, 3-cyano-N-(2-((S)-1′-(4-((R)-2,6-dioxopiperidin-3-yl)-3,5-difluorophenethyl)-3′,3′-difluoro-[1,4′-bipiperidin]-4-yl)-6-(2-hydroxypropan-2-yl)-2H-indazol-5-yl)pyrrolo[1,2-b]pyridazine-7-carboxamide] | 95 | 2.5 | 20 | 99 |  |  |  |  | 122 | 67 |
